Like-named read-outs stand apart in the source and are kept apart here. Residues, ends and D or L forms follow the SMILES beside them. *: point of attachment. Cbz = O=C(OCc1ccccc1)*
Assays:
MCF-10A cells = assay: Resazurin-based cell viability assay, monotherapy drug screen; set-up: species or system human; AUC: scale not given here; details: for IC50: Homo sapiens; for AUC: area under the dose response curve
Experimental: (§1) Eighteen pharmaceutical compounds were purchased from Selleckchem. […] The stock solutions were stored at -80°C. […] New drug plates were prepared for each drug screen.
(§2) To determine the optimal seeding density and ensure that the cells were in the exponential phase during the duration of the experiment (approx. 52h), each cell line (BT-549, CAL-148, HCC1806, HCC38, HCC70, MCF-10A, MCF-7, MDA-MB-436, MDA-MB-453, and MDA-MB-468) was seeded at different concentrations (1000 to 16000 cells) per 96-well, as previously described. Cell viability was measured daily (day 0 [plating day] to day 4) using 0.2 mg/ml resazurin solution prepared from resazurin sodium salt (Fisher Scientific) dissolved in sterile 1xPBS (ThermoFisher Scientific). Before use, the resazurin solution was brought to RT before 10 µl (10% of cell medium volume) was added to each 96-well and incubated for 4h at 37°C. The absorbance was measured with a 560 nm excitation filter and a 615 nm emission filter in a Wallac 1420 VICTOR2™ microplate reader (Perkin Elmer). The slope of the curve was used to determine the optimal seeding density, i.e., the highest seeding density with linear growth between days 1 and 3.

MDA-MB-468 cells = assay: as above; set-up: species or system human; AUC: scale not given here; details: for IC50: Homo sapiens; for AUC: area under the dose response curve, 24 h
Experimental: as §1, §2

MDA-MB-436 cells = assay: as above; set-up: species or system human; AUC: scale not given here; details: for IC50: Homo sapiens; for AUC: area under the dose response curve, 24 h; for GRmax: drug efficacy at highest tested dose (<0 cytotoxic, 0 cytostatic, >0 partial growth inhibition)
Experimental: as §1, §2

MCF-7 cells = assay: as above; set-up: species or system human; AUC: scale not given here; details: for IC50: Homo sapiens; for AUC: area under the dose response curve, 24 h; for GRmax: drug efficacy at highest tested dose (<0 cytotoxic, 0 cytostatic, >0 partial growth inhibition)
Experimental: as §1, §2

HCC70 cells = assay: as above; set-up: species or system human; AUC: scale not given here; details: for AUC: area under the dose response curve, 24 h; for GRmax: drug efficacy at highest tested dose (<0 cytotoxic, 0 cytostatic, >0 partial growth inhibition); for IC50: Homo sapiens
Experimental: as §1, §2

BT-549 cells = assay: as above; set-up: species or system human; AUC: scale not given here; details: for AUC: area under the dose response curve, 24 h; for GRmax: drug efficacy at highest tested dose (<0 cytotoxic, 0 cytostatic, >0 partial growth inhibition); for IC50: Homo sapiens
Experimental: as §1, §2

HCC38 cells = assay: as above; set-up: species or system human; AUC: scale not given here; details: for AUC: area under the dose response curve, 24 h; for GRmax: drug efficacy at highest tested dose (<0 cytotoxic, 0 cytostatic, >0 partial growth inhibition); for IC50: Homo sapiens
Experimental: as §1, §2

HCC1806 cells = assay: as above; set-up: species or system human; AUC: scale not given here; details: for AUC: area under the dose response curve, 24 h; for GRmax: drug efficacy at highest tested dose (<0 cytotoxic, 0 cytostatic, >0 partial growth inhibition); for IC50: Homo sapiens
Experimental: as §1, §2

MDA-MB-453 cells = assay: as above; set-up: species or system human; AUC: scale not given here; details: for IC50: Homo sapiens; for AUC: area under the dose response curve, 24 h
Experimental: as §1, §2

[1] = tested on: eight TNBC cell lines (BT-549, CAL-148, HCC1806, HCC38, HCC70, MDA-MB-436, MDA-MB-453, MDA-MB-468); assay: Monotherapy drug screen, mean across the TNBC cell lines; details: 24 h
Experimental: Eighteen pharmaceutical compounds were purchased from Selleckchem (Supplementary Table 2). Stock solutions were prepared using dimethyl sulfoxide (DMSO; Merck), physiological saline (sodium chloride 0.9%) or Milli-Q water, and stored at −80 °C. […] Matched concentration solvent vehicle controls were used for each drug concentration. The drug screens were performed in triplicate and repeated three (monotherapy) or two (combination therapy) times (Fig. 7).
The optimal seeding density per 96-well was determined for each cell line as previously described. The cells were seeded at a density of 4.0 × 10^3 to 7.5 × 10^3 (cell type dependent) in 96-well clear, flat-bottom microplates (Corning Life Sciences, Sigma-Aldrich) in 100 µl complete culture medium (Supplementary Table 1) and cultured for 24 h. Cell viability was determined using the resazurin assay in untreated cells at the time of plating (t = 0) and treated cells after 24 h drug treatment (Fig. 7). Percentage cell viability was calculated as 100% × (absorbance of treated cells – absorbance of background controls) / (absorbance of matched solvent vehicle controls – absorbance of background controls). The area under the curve (AUC), half-maximal inhibitory concentration (IC50), drug potency (GR50), and drug efficacy (GRmax) were determined for each compound using the GRmetrics (version 1.20.0) package in R. The monotherapy data were evaluated with the IDACombo (version 1.0.2) package in R to predict potential drug combinations (Table 1). SynergyFinder (version 3.2.10) package in R was used to identify synergistic drug combinations.
Eighteen pharmaceutical compounds were purchased from Selleckchem. […] The solubility of the compound was enhanced by pre-heating the solvent (lukewarm), if necessary. […] The stock solutions were stored at -80°C. […] Matched concentration solvent vehicle controls were used for each drug concentration. The drug screens were performed in triplicate and repeated three times for the monotherapies and twice for the combination treatments. The drug(s) and corresponding controls were plated in 96-well PCR plates (VWR) and stored at -20°C (Fig. 6). The drug plates were thawed, centrifuged (3000 rpm for 30s), and acclimatized to RT before the drugs were added to the cells. New drug plates were prepared for each drug screen.
The cells were seeded at a density of 4.0x10^3 to 7.5x10^3 (cell type-dependent) in 96-well clear, flat-bottom microplates (Corning Life Sciences, Sigma-Aldrich) in 100 µl culture medium supplemented with 10% FBS and cultured for 24h. Cell viability was determined using the resazurin assay after 24h drug treatment (Fig. 6). Percentage cell viability was calculated as 100% × (absorbance of treated cells – absorbance of background controls) / (absorbance of matched solvent vehicle controls – absorbance of background controls). Normalized growth rate inhibition (GR) was assessed using the absorbance of untreated cells after the time of plating (t = 0). […] For combination treatment, the monotherapy data were evaluated with the IDACombo (version 1.0.2)[20] package in R to predict potential drug combinations (Table 1). SynergyFinder (version 3.2.10)[21] package in R was used to identify synergistic drug combinations.

[2] = 24 h drug treatment, read-out: IC50
[3] = growth rate inhibition concentration at GR(c) = 0.5, 24 h, read-out: GR50 (the source's name)
[4] = MDA-MB-468, growth rate inhibition concentration at GR(c) = 0.5, 24 h, read-out: GR50 (the source's name)
[5] = MDA-MB-436, growth rate inhibition concentration at GR(c) = 0.5, 24 h, read-out: GR50 (the source's name)
[6] = MCF7, MCF-7, growth rate inhibition concentration at GR(c) = 0.5, 24 h, read-out: GR50 (the source's name)
[7] = HCC70, growth rate inhibition concentration at GR(c) = 0.5, 24 h, read-out: GR50 (the source's name)
[8] = HCC38, 24 h drug treatment, read-out: IC50
[9] = HCC38, growth rate inhibition concentration at GR(c) = 0.5, 24 h, read-out: GR50 (the source's name)
[10] = HCC1806, growth rate inhibition concentration at GR(c) = 0.5, 24 h, read-out: GR50 (the source's name)

| Structure (SMILES) | IC50 (MCF-10A cells; [2]) [µM] | IC50 (MCF-10A cells; [3]) [µM] | AUC (MCF-10A cells; 24 h) | AUC (MDA-MB-468 cells; MDA-MB-468) | IC50 (MDA-MB-436 cells; [5]) [µM] | AUC (MDA-MB-436 cells; MDA-MB-436) | GRmax (MDA-MB-436 cells; MDA-MB-436) | IC50 (MCF-7 cells; [6]) [µM] | AUC (MCF-7 cells; MCF-7) | GRmax (MCF-7 cells; MCF-7) | AUC (HCC70 cells; HCC70) | GRmax (HCC70 cells; HCC70) | AUC (BT-549 cells; BT-549) | GRmax (BT-549 cells; BT-549) | AUC (HCC38 cells; HCC38) | GRmax (HCC38 cells; HCC38) | IC50 (HCC38 cells; [9]) [µM] | AUC (HCC1806 cells; HCC1806) | GRmax (HCC1806 cells; HCC1806) | AUC (MDA-MB-453 cells; MDA-MB-453) | further results |
| --- | --- | --- | --- | --- | --- | --- | --- | --- | --- | --- | --- | --- | --- | --- | --- | --- | --- | --- | --- | --- | --- |
| COC[C@H](NC(=O)c1cnc(C)s1)C(=O)N[C@@H](COC)C(=O)N[C@@H](Cc1ccccc1)C(=O)[C@@]1(C)CO1 [Oprozomib] | 2 | 0.36 | 0.79 | 0.76 | 0.075 | 0.84 | −0.93 | 0.27 | 0.88 | −0.45 | 0.89 | −0.10 | 0.81 | 0.38 | 0.73 | −0.98 | 0.33 | 0.85 | 0.42 | 0.84 | IC50 (MDA-MB-468 cells; MDA-MB-468, 24 h drug treatment, read-out: IC50): 3.2 µM; IC50 (MDA-MB-468 cells; [4]): 0.39 µM; IC50 (HCC70 cells; HCC70, 24 h drug treatment, read-out: IC50): 7.6 µM; IC50 (HCC70 cells; [7]): 3.7 µM; IC50 (BT-549 cells; BT-549, growth rate inhibition concentration at GR(c) = 0.5, 24 h, read-out: GR50 (the source's name)): 0.94 µM; IC50 (HCC38 cells; [8]): 0.68 µM; IC50 (HCC1806 cells; HCC1806, 24 h drug treatment, read-out: IC50): 6 µM; IC50 (HCC1806 cells; [10]): 6 µM; IC50 (MDA-MB-453 cells; MDA-MB-453, growth rate inhibition concentration at GR(c) = 0.5, 24 h, read-out: GR50 (the source's name)): 3.5 µM |
| CC(=O)O[C@H]1C(=O)[C@@]2(C)[C@H]([C@H](OC(=O)c3ccccc3)[C@]3(O)C[C@H](OC(=O)[C@H](O)[C@@H](NC(=O)c4ccccc4)c4ccccc4)C(C)=C1C3(C)C)[C@]1(OC(C)=O)CO[C@@H]1C[C@@H]2O [Paclitaxel] | 0.86 | 0.098 | 0.73 | 0.81 | 0.055 | 0.78 | −0.97 | 0.041 | 0.79 | −0.56 | 0.86 | 0.46 | 0.87 | 0.58 | 0.81 | −0.50 | 0.11 | 0.72 | 0.51 | 0.93 | IC50 (MDA-MB-468 cells; [4]): 1.4 µM; IC50 (HCC70 cells; [7]): 0.38 µM; IC50 (HCC38 cells; [8]): 7.1 µM; IC50 (HCC1806 cells; [10]): 0.84 µM |
| CC(=O)O[C@@]12CO[C@@H]1C[C@H](O)[C@@]1(C)C(=O)[C@H](O)C3=C(C)[C@@H](OC(=O)[C@H](O)[C@@H](NC(=O)OC(C)(C)C)c4ccccc4)C[C@@](O)([C@@H](OC(=O)c4ccccc4)[C@H]21)C3(C)C [Docetaxel] | 0.05 | 0.009 | 0.63 | 0.77 | 0.005 | 0.69 | −0.81 | 0.0065 | 0.75 | −0.44 | 0.83 | 0.72 | 0.79 | 0.61 | 0.78 | 0.17 | 0.013 | 0.64 | 0.56 | 0.87 | IC50 ([1]; Homo sapiens, read-out: GR50 (mean ± SD)): 0.0088 ± 0.0039 µM; area under the dose response curve (AUC), mean ± SD ([1]; TNBC cell lines): 0.79 ± 0.10 |
| CC(C)C[C@@H](C=O)NC(=O)[C@H](CC(C)C)NC(=O)[C@H](CC(C)C)NC(=O)OCc1ccccc1 [MG 132, MG-132] (Cbz-Leu-Leu-Leu-aldehyde) | – | – | 0.78 | 0.81 | – | 0.86 | −0.88 | – | 0.87 | −0.32 | 0.87 | −0.40 | 0.83 | 0.26 | 0.71 | −0.98 | – | 0.82 | 0.31 | 0.87 | IC50 (MCF-10A cells; 24 h): 0.94 µM; IC50 (MCF-10A cells; 24 h, read-out: GR50 (µM)): 0.4 µM; IC50 (MDA-MB-468 cells; MDA-MB-468, 24 h): 1.4 µM; IC50 (MDA-MB-468 cells; MDA-MB-468, 24 h, read-out: GR50 (µM)): 0.61 µM; IC50 (MDA-MB-436 cells; MDA-MB-436, 24 h, read-out: GR50 (µM)): 0.29 µM; IC50 (MCF-7 cells; MCF7, 24 h, read-out: GR50 (µM)): 0.57 µM; IC50 (HCC70 cells; HCC70, 24 h): 3.7 µM; IC50 (HCC70 cells; HCC70, 24 h, read-out: GR50 (µM)): 2.1 µM; IC50 (BT-549 cells; BT-549, 24 h): 4.3 µM; IC50 (BT-549 cells; BT-549, 24 h, read-out: GR50 (µM)): 1.4 µM; IC50 (HCC38 cells; HCC38, 24 h): 0.57 µM; IC50 (HCC38 cells; HCC38, 24 h, read-out: GR50 (µM)): 0.37 µM; IC50 (HCC1806 cells; HCC1806, 24 h): 3.1 µM; IC50 (HCC1806 cells; HCC1806, 24 h, read-out: GR50 (µM)): 2.5 µM; IC50 (MDA-MB-453 cells; MDA-MB-453, 24 h, read-out: GR50 (µM)): 1.7 µM |

Source: paper PMC10825133, “Repurposing proteasome inhibitors for improved treatment of triple-negative breast cancer” (Cell Death Discovery, 2024)
